According to patent US12233060B2, “Inhibitors of Ataxia-Telangiectasia Mutated and Rad3-related protein kinase (ATR) for use in methods of treating cancer” (THE INSTITUTE OF CANCER RESEARCH: ROYAL CANCER HOSPITAL, priority 2016, dated 2025):

Tests used:
HCC1143 cells = test: 384 well plate cell survival after ARID1A siRNA transfection; assay type: cell-based, human; conditions: ARID1A siRNA vs control, five continuous days exposure
Text: FIG. 1. […] A. Structure of VE-821 and schematic describing workflow for parallel VE-821 chemosensitisation screens in MCF12A and HCC1143 cells. B. Scatter plots of VE-821 Drug Effect (DE) Z-scores from all 1280 siRNAs used in the in the chemosensitisation screens. The DE Z-score threshold of −2 (red line) was used for defining candidate synthetic lethal interactions is shown. C. Venn diagram of DE<−2 VE-821 sensitisation hits in MCF12A and HCC1143 cells. Numbers shown indicate number of sensitisation genes. Amongst the 30 genes with DE Z-scores <−2 in both cell lines, seven well-established tumour suppressor genes were identified. D. Bar charts illustrating DE Z-scores for control, non-targeting, siRNAs (siALLSTAR, siCON1, siCON2) and ARID1A siRNAs in the chemosensitisation screens. Values shown are median from triplicate screens and error bars represent SD. […]
A siRNA library was purchased from Dharmacon. […] RNAi screening conditions were optimised and raw CellTitre-Glo (Promega) luminescent viability readings were generated as previously described21. […]
Short-term survival assays were performed in 384-well plates. […] Drug was added 24 h after seeding and cells were continuously exposed to the drug for five days, after which cell viability was estimated using CellTitre-Glo luminescence (Promega). […] Colonies were counted manually. […]

[1] = test system: HCT116 ARID1A isogenic (+/+ and −/−) cell lines; test: Clonogenic survival of ARID1A isogenic cells; assay type: cell-based, human
Procedure: FIG. 2. In vitro ARID1A/ATR synthetic lethality. A. Chemical structure of VX-970. B. Western blot of ARID1A in human ARID1A isogenic HCT116 cells. C. Image of colonies in 6 well-plate clonogenic assay. HCT116 ARID1A isogenic (^+/+ and ^−/−) cell lines were exposed to increasing concentrations of the VE-821 (0, 0.1, 1 uM) and VX-970 (0, 0.01, 0.05 uM) for 14 days. D and E. Dose response clonogenic survival curve of HCT116 ARID1A isogenic (^+/+ and ^−/−) cell lines exposed to increasing concentrations of the VE-821 and VX-970 for 14 days. Error bars represent SD from triplicate experiments, ANOVA p-value of <0.0001. F. Area under curve (AUC) box whisker comparison plot for human tumor cell lines exposed to VX-970 for five days. ARID1A wild type tumor cell lines (n=15) were compared to ARID1A mutant cell lines (n=9). Student's t-test p=0.00594. G. Dose response clonogenic survival curve of mouse Arid1a isogenic ES cell lines. Experiment was performed as per (C). Error bars represent SD from triplicate experiments, ANOVA p value of <0.0001. H. Western blot of Arid1a protein expression in mouse ES Arid1a isogenic cells. I. Z score box whisker comparison plot for 86 human tumor cell lines transfected with ATR siRNA. Cells lines were transfected with siRNA and cell viability was estimated five days later by Cell Titre Glo reagent.
Short-term survival assays were performed in 384-well plates. Exponentially growing cells were plated at a concentration of 500 cells/well. Drug was added 24 h after seeding and cells were continuously exposed to the drug for five days, after which cell viability was estimated using CellTitre-Glo luminescence (Promega). For clonogenic assays, cells were seeded in 6-well plates (500 cells/well) and continuously exposed to drug 24!h after seeding for 14 days. Media containing fresh drug was replaced every 72 hours. Cells were fixed with 10% trichloroacetic acid and stained with sulphorhodamine B (Sigma-Aldrich, Gillingham, UK). Colonies were counted manually. All cell-based assays were performed at least in triplicate.

CNCc1ccc(-c2cc(-c3nc(-c4ccc(S(=O)(=O)C(C)C)cc4)cnc3N)on2)cc1 [VX-970, 5-[4-(Isopropylsulfonyl)phenyl]-3-(3-{4-[(methylamino)methyl]phenyl}-1,2-oxazol-5-yl)-2-pyrazinamine]
ATRi sensitivity caused by ARID1A siRNA (HCC1143 cells): caused sensitivity | ARID1A−/− selectivity compared with PARP inhibitors or cisplatin [1]: greater than for other proposed ARID1A-targeted agents
